Results from US8344008B2 (Janssen Pharmaceutica NV, priority 2007, dated 2013).
Where a name gives a salt, the structure may show the parent alone.

Biological target: T1, recombinant human LTA4 hydrolase (rhLTA4H) (Homo sapiens, UniProt P09960)
T1 construct: made in house; host or cells: Spodoptera frugiperda (Sf-9) cells, baculovirus (pFastBac1)
T1 sequence (P09960 1-611): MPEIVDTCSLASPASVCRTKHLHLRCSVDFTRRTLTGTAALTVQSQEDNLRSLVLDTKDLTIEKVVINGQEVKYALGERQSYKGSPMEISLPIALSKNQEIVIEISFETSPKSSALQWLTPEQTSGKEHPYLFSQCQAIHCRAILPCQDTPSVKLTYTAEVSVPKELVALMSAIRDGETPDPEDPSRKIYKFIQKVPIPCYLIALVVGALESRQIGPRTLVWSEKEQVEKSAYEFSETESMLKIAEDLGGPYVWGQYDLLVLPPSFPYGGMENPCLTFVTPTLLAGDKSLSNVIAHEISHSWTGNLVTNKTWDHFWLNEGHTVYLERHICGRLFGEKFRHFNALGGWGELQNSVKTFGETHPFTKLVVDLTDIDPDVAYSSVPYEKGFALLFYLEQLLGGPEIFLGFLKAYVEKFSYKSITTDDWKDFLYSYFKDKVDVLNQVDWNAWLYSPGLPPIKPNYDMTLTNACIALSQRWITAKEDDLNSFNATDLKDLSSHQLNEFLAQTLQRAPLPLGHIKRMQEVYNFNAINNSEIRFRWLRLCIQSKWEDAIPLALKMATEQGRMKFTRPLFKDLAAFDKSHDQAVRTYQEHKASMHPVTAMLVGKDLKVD
Experiment: Recombinant Human LTA4 Hydrolase Assay for LTA4 Hydrolase Inhibitor Activity
Type: biochemical
Settings: average of results obtained; LTB4 quantified by enzyme-linked immunoassay
Procedure: Biological Methods: Recombinant Human LTA4 Hydrolase Assay for LTA4 Hydrolase Inhibitor Activity
Compounds of the present invention were tested for LTA4 hydrolase inhibitor activity against recombinant human LTA4 hydrolase (rhLTA4H). Vectors were prepared and used to express rhLTA4H essentially as follows: LTA4 hydrolase encoding DNA was amplified by polymerase chain reaction (PCR) using a human placental cDNA library as a template. Oligonucleotide primers for the PCR reaction were based on the 5′-end, and the complement of the 3′-end, of the published nucleotide sequence for the coding region of the human LTA4 hydrolase gene (C. D. Funk et al., Proc. Natl. Acad. Sci. USA 1987, 84:6677-6681). The amplified 1.9 kb DNA fragment encoding LTA4 hydrolase was isolated and cloned into the pFastBac1 vector (Invitrogen). Recombinant baculovirus was generated as described by the manufacturer, and used to infect Spodoptera frugiperda (Sf-9) cells. Recombinant LTA4 hydrolase enzyme was purified from the infected Sf-9 cells essentially as described by J. K. Gierse et al. (Protein Expression and Purification 1993, 4:358-366). The purified enzyme solution was adjusted to contain 0.29 mg/mL LTA4 hydrolase, 50 mM Tris (pH 8.0), 150 mM NaCl, 5 mM dithiothreitol, 50% glycerol, and EDTA-free Complete protease inhibitor cocktail (Roche). The specific activity of the enzyme was about 3.8 μmol/min/mg.
LTA4 substrate was prepared from the methyl ester of LTA4 (Cayman Chemical) by treatment with 67 equiv of NaOH under nitrogen at rt for 40 min. The LTA4 substrate in its free acid form was kept frozen at −80° C. until needed. Each compound was diluted to different concentrations in assay buffer (0.1 M potassium phosphate (pH 7.4), 5 mg/mL fatty acid free BSA) containing 10% DMSO. A 25-uL aliquot of each compound dilution was incubated for 10 min at rt with an equal volume of assay buffer containing 36 ng of recombinant human LTA4H. The solution was then adjusted to 200 μL with assay buffer. LTA4 (free acid) was thawed and diluted in assay buffer to a concentration of 357 ng/mL, and 25 μL (9 ng) of LTA4 substrate was added to the reaction mixture (total volume=225 μL) at time zero. Each reaction was carried out at rt for 10 min. The reaction was stopped by diluting 10 μL of the reaction mixture with 200 μL of assay buffer. LTB4 was quantified in the diluted sample by a commercially available enzyme-linked immunoassay (Cayman Chemical Co.), as recommended by the manufacturer. Positive controls, under essentially identical conditions but without addition of an inhibitor compound, and negative controls, containing all assay components except enzyme, were routinely run in each experiment. […]
Results for the compounds tested in this assay are presented in Table 1 as an average of results obtained.

| Compound | Ki [nM] |
| --- | --- |
| Cc1noc(C)c1NC(=O)N1CC2CN(Cc3ccc(Oc4nc5ccccc5s4)cc3)CC2C1 (stereo not shown) [Example 133, 5-[4-(Benzothiazol-2-yloxy)-benzyl]-hexahydro-pyrrolo[3,4-c]pyrrole-2-carboxylic acid (3,5-dimethyl-isoxazol-4-yl)-amide] | 20 |
| CC(=O)N1C[C@H]2C[C@@H]1CN2CCc1ccc(Oc2nc3cc(Cl)ccc3s2)cc1 [Example 274, (R,R)-1-(5-{2-[4-(5-Chloro-benzothiazol-2-yloxy)-phenyl]-ethyl}-2,5-diaza-bicyclo[2.2.1]hept-2-yl)-ethanone] | 121 |
| CC(C)(O)C(=O)N[C@H]1C[C@H]2CC[C@@H](C1)N2Cc1ccc(Oc2nc3ccccc3s2)cc1 [Example 54, meso-endo-N-{8-[4-(Benzothiazol-2-yloxy)-benzyl]-8-aza-bicyclo[3.2.1]oct-3-yl}-2-hydroxy-2-methyl-propionamide] | 4 |
| NCC(=O)N1C[C@H]2C[C@@H]1CN2Cc1ccc(Oc2nc3ccccc3s2)cc1 [Example 29, (R,R)-2-Amino-1-{5-[4-(benzothiazol-2-yloxy)-benzyl]-2,5-diaza-bicyclo[2.2.1]hept-2-yl}-ethanone] | 77 |
| c1cc(CN2C[C@@H]3C[C@H]2CN3)cc(Oc2nc3ccccc3s2)c1 [Example 69, (S,S)-2-[3-(2,5-Diaza-bicyclo[2.2.1]hept-2-ylmethyl)-phenoxy]-benzothiazole hydrochloride] | 450 |
| CC(=O)N[C@H]1C[C@H]2CC[C@@H](C1)N2Cc1ccc(Oc2nc3ccc(C)cc3s2)cc1 [Example 73, meso-endo-N-{8-[4-(6-Methyl-benzothiazol-2-yloxy)-benzyl]-8-aza-bicyclo[3.2.1]oct-3-yl}-acetamide] | 33 |
| Cc1ccc2nc(Oc3ccc(CCN4C[C@H]5C[C@@H]4CN5S(C)(=O)=O)cc3)sc2c1 [Example 193, (R,R)-2-{4-[2-(5-Methanesulfonyl-2,5-diaza-bicyclo[2.2.1]hept-2-yl)-ethyl]-phenoxy}-6-methyl-benzothiazole] | 612 |
| CC(=O)N1C[C@@H]2C[C@H]1CN2CCOc1ccc(Oc2nc3cc(Cl)ccc3s2)cc1 [Example 264, (S,S)-1-(5-{2-[4-(5-Chloro-benzothiazole-2-yloxy)-phenoxy]-ethyl}-2,5-diaza-bicyclo[2.2.1]hept-2-yl)-ethanone] | 212 |
| CS(=O)(=O)N[C@@H]1C[C@H]2CC[C@@H](C1)N2CCOc1ccc(Oc2nc3ccc(Cl)cc3s2)cc1 [Example 225, meso-exo-N-(8-{2-[4-(6-Chloro-benzothiazol-2-yloxy)-phenoxy]-ethyl}-8-aza-bicyclo[3.2.1]oct-3-yl)-methanesulfonamide] | 116 |
| CS(=O)(=O)N1[C@@H]2CC[C@H]1C[C@H](NCCOc1ccc(Oc3nc4c(F)cccc4s3)cc1)C2 [Example 217, meso-exo-{2-[4-(4-Fluoro-benzothiazol-2-yloxy)-phenoxy]-ethyl}-(8-methanesulfonyl-8-aza-bicyclo[3.2.1]oct-3-yl)-amine] | 30 |
| NC(=O)N1CC2CN(Cc3ccc(Oc4nc5ccc(F)cc5s4)cc3)CC2C1 (stereo not shown) [Example 144, 5-[4-(6-Fluoro-benzothiazol-2-yloxy)-benzyl]-hexahydro-pyrrolo[3,4-c]pyrrole-2-carboxylic acid amide] | 101 |
| CS(=O)(=O)N1[C@@H]2CC[C@H]1C[C@@H](NCCc1ccc(Oc3nc4c(F)cccc4s3)cc1)C2 [Example 279, meso-endo-{2-[4-(4-Fluoro-benzothiazol-2-yloxy)-phenyl]-ethyl}-(8-methanesulfonyl-8-aza-bicyclo[3.2.1]oct-3-yl)-amine] | 21 |
| CS(=O)(=O)N[C@H]1C[C@H]2CC[C@@H](C1)N2Cc1ccc(Oc2nc3ccccc3s2)cc1 [Example 58, meso-endo-N-{8-[4-(Benzothiazol-2-yloxy)-benzyl]-8-aza-bicyclo[3.2.1]oct-3-yl}-methanesulfonamide] | 0.2 |
| Cc1ccc2nc(Oc3ccc(CN4[C@@H]5CC[C@H]4C[C@H](NS(C)(=O)=O)C5)cc3)sc2c1 [Example 200, meso-exo-N-{8-[4-(6-Methyl-benzothiazol-2-yloxy)-benzyl]-8-aza-bicyclo[3.2.1]oct-3-yl}-methanesulfonamide] | 65 |
| CS(=O)(=O)N[C@@H]1C[C@H]2CC[C@@H](C1)N2Cc1ccc(Oc2nc3cccc(Cl)c3s2)cc1 [Example 215, meso-exo-N-{8-[4-(7-Chloro-benzothiazol-2-yloxy)-benzyl]-8-aza-bicyclo[3.2.1]oct-3-yl}-methanesulfonamide] | 90 |
| Cc1ccc2sc(Oc3ccc(OCCN4C[C@@H]5C[C@H]4CN5S(C)(=O)=O)cc3)nc2c1 [Example 255, (S,S)-2-{4-[2-(5-Methanesulfonyl-2,5-diaza-bicyclo[2.2.1]hept-2-yl)-ethoxy]-phenoxy}-5-methyl-benzothiazole] | 277 |
| NC(=O)N[C@@H]1C[C@H]2CC[C@@H](C1)N2CCc1ccc(Oc2nc3cc(Cl)ccc3s2)cc1 [Example 202, meso-exo-(8-{2-[4-(5-Chloro-benzothiazol-2-yloxy)-phenyl]-ethyl}-8-aza-bicyclo[3.2.1]oct-3-yl)-urea] | 127 |
| O=C(C1CCC1)N1CC2CN(Cc3ccc(Oc4nc5ccccc5s4)cc3)CC2C1 (stereo not shown) [Example 104, {5-[4-(Benzothiazol-2-yloxy)-benzyl]-hexahydro-pyrrolo[3,4-c]pyrrol-2-yl}-cyclobutyl-methanone] | 62 |
| CC(=O)N1C[C@@H]2C[C@H]1CN2Cc1ccc(Oc2nc3ccccc3s2)cc1 [Example 1, (S,S)-1-{5-[4-(Benzothiazol-2-yloxy)-benzyl]-2,5-diaza-bicyclo[2.2.1]hept-2-yl}-ethanone] | 6 |
| CC(=O)N[C@@H]1C[C@H]2CC[C@@H](C1)N2Cc1ccc(Oc2nc3ccc(F)cc3s2)cc1 [Example 272, meso-exo-N-{8-[4-(6-Fluoro-benzothiazol-2-yloxy)-benzyl]-8-aza-bicyclo[3.2.1]oct-3-yl}-acetamide] | 6 |
| O=C(C1CNC1)N1CC2CN(Cc3ccc(Oc4nc5ccccc5s4)cc3)CC2C1 (stereo not shown) [Example 99, Azetidin-3-yl-{5-[4-(benzothiazol-2-yloxy)-benzyl]-hexahydro-pyrrolo[3,4-c]pyrrol-2-yl}-methanone] | 221 |
| CC(=O)N[C@H]1C[C@H]2CC[C@@H](C1)N2CCOc1ccc(Cc2nc3ccccc3s2)cc1 [Example 152, N-{8-[2-(4-Benzothiazol-2-ylmethyl-phenoxy)-ethyl]-8-aza-bicyclo[3.2.1]oct-3-yl}-acetamide] | 75 |
| CC(C)(C)OC(=O)NCC(=O)N1C[C@@H]2C[C@H]1CN2Cc1ccc(Oc2nc3ccccc3s2)cc1 [Example 14, (S,S)-(2-{5-[4-(Benzothiazol-2-yloxy)-benzyl]-2,5-diaza-bicyclo[2.2.1]hept-2-yl}-2-oxo-ethyl)-carbamic acid tert-butyl ester] | 9 |
| CC(=O)N1[C@@H]2CC[C@H]1C[C@@H](NCCc1ccc(Oc3nc4cc(F)ccc4s3)cc1)C2 [Example 197, meso-endo-1-(3-{2-[4-(5-Fluoro-benzothiazol-2-yloxy)-phenyl]-ethylamino}-8-aza-bicyclo[3.2.1]oct-8-yl)-ethanone] | 85 |
| NC(=O)N1CC2CN(CCc3ccc(Oc4nc5c(F)cccc5s4)cc3)CC2C1 (stereo not shown) [Example 147, 5-{2-[4-(4-Fluoro-benzothiazol-2-yloxy)-phenyl]-ethyl}-hexahydro-pyrrolo[3,4-c]pyrrole-2-carboxylic acid amide] | 5 |
